Measurements as given in patent US20250064951A1, “DENDRITIC POLYELECTROLYTE ZWITTERIONS, JANUS-TYPE CONJUGATE COMPRISING SAME AND USES THEREOF” (ArtProBio Co., Ltd., priority 2023, published 2025).

Legend:
BALB/c nude mice = test: In vivo delivery of EGFP mRNA complex, eGFP imaging by IVIS; conditions: subcutaneous injection, 0.1 mg/kg
Method: The complex ((+6)2(−6)2_conjugate 2_complex) was subcutaneously injected into BALB/c nude mice at 0.1 mg/kg, and then the expressed eGFP (enhanced green fluorescenct protein) was imaged and quantified with IVIS (in vivo imaging system). As a control group, only EGFP mRNA was used instead of the complex.

HeLa cells = test: EGFP mRNA complex delivery and eGFP expression in HeLa cells by flow cytometry; assay type: cell-based; conditions: complex with EGFP mRNA
Method: HeLa cells were subcultured in DMEM supplemented with 10% FBS (fetal bovine serum), dispensed into each well at 1-3×10^4 cells/well, and cultured at 37° C. for 24 hours. The cells were treated with the (+6)2(−6)2_conjugate 2_complex or the (+6)2(−6)2_conjugate 3_complex at a concentration of […], respectively, and incubated at 37° C. for 4 hours. Afterwards, the cells were washed with Dulbecco's phosphate-buffered saline (DPBS), trypsinized, and resuspended in DPBS supplemented with 10% cell dissociation buffer (GIBCO) and 1% FBS. Then, the expressed eGFP (enhanced green fluorescent protein) was analyzed using a flow cytometer (BD LSR II SORT flow cytometer, BD Bioscience, USA).

CCCCCCCCCCCCCCCCCCC[C@H](CCCCNC(=O)CCCCCCCCCCCCCCC)C(=O)NCCCCC(NC(=O)[C@H](CCCCNC(=O)[C@H](CCCCNC(=O)[C@H](CCC(=O)O)NC(=O)[C@H](CCC(=O)O)NC(=O)[C@H](CCC(=O)O)NC(=O)[C@H](CCC(=O)O)NC(=O)[C@H](CCC(=O)O)NC(=O)[C@H](CCC(=O)O)NC(C)=O)NC(=O)[C@H](CCCNC(=N)N)NC(=O)[C@H](CCCNC(=N)N)NC(=O)[C@H](CCCNC(=N)N)NC(=O)[C@H](CCCNC(=N)N)NC(=O)[C@H](CCCNC(=N)N)NC(=O)[C@H](CCCNC(=N)N)NC(C)=O)NC(=O)[C@H](CCCCNC(=O)[C@H](CCC(=O)O)NC(=O)[C@H](CCC(=O)O)NC(=O)[C@H](CCC(=O)O)NC(=O)[C@H](CCC(=O)O)NC(=O)[C@H](CCC(=O)O)NC(=O)[C@H](CCC(=O)O)NC(C)=O)NC(=O)[C@H](CCCNC(=N)N)NC(=O)[C@H](CCCNC(=N)N)NC(=O)[C@H](CCCNC(=N)N)NC(=O)[C@H](CCCNC(=N)N)NC(=O)[C@H](CCCNC(=N)N)NC(=O)[C@H](CCCNC(=N)N)NC(C)=O)C(N)=O (stereo partly drawn) [Example 7]
in vivo mRNA delivery and eGFP protein expression (IVIS) (BALB/c nude mice): successfully delivered the mRNA in vivo | delivery of EGFP mRNA into cells (HeLa cells; 16 M or 32 M, 4 hours): successfully delivered the mRNA into the nucleus and cytoplasm of the cells | efficiency of eGFP protein expression from internalized EGFP mRNA (HeLa cells; flow cytometry): 82.9%
